Series [1] deals with T1, bovine serum albumin (BSA) (Bos taurus, UniProt P02769).
T1 construct: purchased Sigma A7906
Kind of series: Spectrofluorometric analysis of fluorogenicity upon BSA binding. Format: physicochemical. To be noted: for increase in absolute fluorescence upon addition of 1% BSA: 1% BSA compared to PBS. On the procedure:
Spectrofluorometric measurements were carried out by using the Agilent Cary Eclipse instrument. The voltage of the photomultiplier tube (PMT) was set to 600 for EvoSiR4 and EvoSiR6, and for 500 for SiR (4). Fluorescence of the probes was measured at concentrations ranging from 30 to 3000 nM in PBS containing various amounts of bovine serum albumin (BSA) (Sigma, A7906). Quenching experiments for the calculation of BSA binding were performed by adding a 1:1 molar ratio of tannic acid dissolved in ddH2O (Sigma, 403040) to the solution prior to measuring fluorescence.

Another series deals with CCL39 cells. Kind of series: Calcein AM viability assay, CCL39 cells, 72 h. Type of series: cell-based, hamster. As for the experimental part:
The effects of EvoSiR probes and evocalcet on the viability of CCL39 and HCAR cells were evaluated using the Calcein AM assay as described by the manufacturer’s protocol (AAT Bioquest, 22002) with a working concentration of 10 μM. For the assay, cells were incubated in various concentrations of the compounds for 72 h. For positive controls, cells were incubated in culture media containing maximum 10% DMSO in a two-step dilution series for 72 h. Upon incubation in the Calcein AM solution for 1 h at 37 °C, the fluorescence readouts were retrieved using the Tecan GENios pro microplate reader (λex = 485 nm, λem = 535 nm, gain = 25 AU)

Series [2] concerns the target T2, human CaSR (Homo sapiens, UniProt P41180).
T2 construct: host or cells: CCL39 hamster lung fibroblasts stably transfected (HCAR), Geneticin selection
T2 sequence (P41180 20-1078): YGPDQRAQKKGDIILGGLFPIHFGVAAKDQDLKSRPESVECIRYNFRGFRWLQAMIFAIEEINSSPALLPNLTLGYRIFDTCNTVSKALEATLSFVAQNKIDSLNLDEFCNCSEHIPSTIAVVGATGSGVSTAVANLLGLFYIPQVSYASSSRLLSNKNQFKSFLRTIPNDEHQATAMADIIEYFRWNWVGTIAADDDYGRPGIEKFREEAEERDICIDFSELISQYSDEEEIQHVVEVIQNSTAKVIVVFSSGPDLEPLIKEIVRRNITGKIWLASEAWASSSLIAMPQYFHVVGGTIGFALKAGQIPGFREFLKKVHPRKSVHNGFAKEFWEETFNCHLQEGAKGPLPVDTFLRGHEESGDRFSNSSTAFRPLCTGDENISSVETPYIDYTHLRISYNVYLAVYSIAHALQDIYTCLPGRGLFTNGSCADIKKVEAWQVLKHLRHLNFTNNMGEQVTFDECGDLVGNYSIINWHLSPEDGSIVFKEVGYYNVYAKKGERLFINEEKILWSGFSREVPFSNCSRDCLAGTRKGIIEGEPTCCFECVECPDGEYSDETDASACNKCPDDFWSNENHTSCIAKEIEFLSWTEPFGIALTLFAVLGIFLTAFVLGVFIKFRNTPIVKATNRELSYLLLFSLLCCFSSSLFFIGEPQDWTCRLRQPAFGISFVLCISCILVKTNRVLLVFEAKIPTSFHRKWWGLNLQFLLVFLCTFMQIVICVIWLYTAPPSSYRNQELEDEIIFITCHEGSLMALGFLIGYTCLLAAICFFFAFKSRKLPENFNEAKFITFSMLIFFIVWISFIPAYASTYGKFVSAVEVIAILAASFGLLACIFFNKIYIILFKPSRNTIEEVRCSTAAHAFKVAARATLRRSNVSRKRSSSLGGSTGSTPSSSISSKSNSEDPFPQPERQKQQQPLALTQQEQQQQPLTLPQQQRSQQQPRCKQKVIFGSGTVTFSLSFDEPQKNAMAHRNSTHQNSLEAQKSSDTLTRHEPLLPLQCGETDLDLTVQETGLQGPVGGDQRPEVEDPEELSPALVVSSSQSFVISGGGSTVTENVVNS
Description: FLIPR-based functional CaSR calcium assay in HCAR cells. Type of series: cell-based. To be noted: for fold improvement in potency toward CaSR compared to evocalcet / fold increase in potency toward CaSR compared to the evocalcet-linker conjugate: FLIPR assay. On the procedure: (§1) Hamster lung fibroblasts (CCL39, CaSR−) expressing the recombinant human CaSR (HCAR, CaSR+) and nontransected controls were kindly provided by Novartis AG and were kept in standard culturing conditions (37 °C, 5% CO2) in 1/2 DMEM (Roth, 9005.1)—1/2 F-12 (Sigma, N4888–500 mL) media containing 10% FBS. Media for the HCAR cells contained 500 μg/mL Geneticin as a selection antibiotic (Thermo Fisher, 10131035). Upon reaching 90–95% confluence, cells were detached and seeded into 96-well plates (PerkinElmer, 6005182) at a concentration of 35,000 cells per well and were incubated for 24 h before the experiment. For the functional CaSR calcium assay, cells were first washed twice with HBSS medium (Sigma, H6648), and were incubated in HBSS containing 5 μM Fluo-8 AM and 0.1 mM CaCl2 for 30 min at 37 °C. Calcium transients were measured upon addition of 0.5 mM CaCl2 with the FLIPR Tetra high-throughput cellular screening systems using the 470–495 nm LED excitation and 515–575 nm bandpass emission filters. Probe solutions contained 0.5% DMSO and were added to the cells 10 min prior to the measurement. dF/F0 values were calculated as a change in the peak fluorescence value of the transient for the first 200 data points normalized to the background fluorescence of the well. […] Both cells were washed with HBSS medium twice and then incubated for 10 min at 37 °C in HBSS medium containing 0.1% BSA in the presence or absence of 10 μM evocalcet. Upon the removal of media, cells were incubated in various concentrations of EvoSiR4 and EvoSiR6 in HBSS containing 0.1% BSA for 30 min at 37 °C and were subsequently washed 3 times with 0.1% BSA and resuspended in DMSO before the fluorometric measurement. The fluorescence was measured using a Tecan GENios pro microplate reader with the following parameters: λex = 612 nm, λem = 670 nm, gain = 50 AU. Data for the EvoSiR probes and the evocalcet competition is reported as CaSR-specific fluorescence, which was calculated by dividing the absolute fluorescence of the HCAR cells with the absolute fluorescence of the CCL39 cells for each concentration.

Series [3] has as its target T2, human CaSR. Kind of series: CaSR binding affinity estimated from differential fluorescence between HCAR (CaSR+) and CCL39 (CaSR-) cells. As for the experimental part:
as §1

The mark [4] stands for this setting: EC50, positive allosteric modulation of CaSR activity, HCAR cells, response to addition of 0.5 mM CaCl2, no BSA.

Where “and” joins values, the source holds several entries; their conditions need not be identical. Equal values may be shown once. Entries after “also recorded” stand apart in the source; their conditions may differ. Read-outs that look alike come from different tables or passages of the source.

T1 sequence (P02769 25-607): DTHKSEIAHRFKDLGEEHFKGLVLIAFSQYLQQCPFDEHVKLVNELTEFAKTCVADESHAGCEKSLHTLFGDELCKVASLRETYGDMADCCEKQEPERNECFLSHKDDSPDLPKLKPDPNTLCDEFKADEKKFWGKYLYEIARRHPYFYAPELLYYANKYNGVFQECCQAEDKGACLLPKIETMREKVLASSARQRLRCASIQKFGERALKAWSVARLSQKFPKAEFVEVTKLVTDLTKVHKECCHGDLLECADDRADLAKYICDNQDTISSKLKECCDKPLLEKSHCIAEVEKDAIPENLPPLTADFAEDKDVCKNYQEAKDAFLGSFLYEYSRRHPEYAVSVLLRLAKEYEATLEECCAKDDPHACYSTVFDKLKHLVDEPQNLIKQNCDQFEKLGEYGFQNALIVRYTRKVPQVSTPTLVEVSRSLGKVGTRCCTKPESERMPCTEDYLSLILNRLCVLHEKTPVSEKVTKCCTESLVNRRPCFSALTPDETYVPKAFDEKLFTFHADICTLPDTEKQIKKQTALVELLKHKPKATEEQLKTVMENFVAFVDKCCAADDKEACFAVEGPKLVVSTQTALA

Consider `Cc1cc(C(=O)NCCCCNC(=O)Cc2ccc(N3CC[C@H](N[C@H](C)c4cccc5ccccc45)C3)cc2)ccc1C1=C2C=CC(=[N+](C)C)C=C2[Si](C)(C)c2cc(N(C)C)ccc21` [EvoSiR4], for which, in series [1], the “fold increased fluorescence in 0.1% BSA compared to PBS” value was 4 fold. The “increase in absolute fluorescence upon addition of 1% BSA” value in series [1] is on record as 400%. In addition, the IC50 with CCL39 cells is 36000 ± 3800 nM. The “effect on viability at 50 μM” value in the series on CCL39 cells is recorded as “significantly reduced”. Further, the EC50 on human CaSR [2] (setting [4]) was < 45 nM and ~40 nM and 38 nM; at human CaSR [2] (EC50 in 0.1% BSA, 0.1% BSA) it was 64 ± 12 nM; on human CaSR [2] (EC50 in 0.5% BSA, 0.5% BSA) it was 102 ± 34 nM; at human CaSR [2] (EC50 in 1% BSA, 1% BSA), 106 ± 42 nM. The “fold improvement in potency toward CaSR compared to evocalcet” value at human CaSR [2] is given as 6 fold. The “fold increase in potency toward CaSR compared to the evocalcet-linker conjugate” value on human CaSR [2] is listed as 3 fold. In addition, the “fold reduction in the EC50 value upon washing with HBSS” value on human CaSR [2] (incubated in 1% BSA, washed with HBSS upon 10 min incubation) was 10 fold. At human CaSR [3], the dissociation constant Kd is 53.6 ± 18.4 nM.
As to `Cc1cc(C(=O)NCCCCCCNC(=O)Cc2ccc(N3CC[C@H](N[C@H](C)c4cccc5ccccc45)C3)cc2)ccc1C1=C2C=CC(=[N+](C)C)C=C2[Si](C)(C)c2cc(N(C)C)ccc21` [EvoSiR6], in series [1], the “fold increased fluorescence in 0.1% BSA compared to PBS” value amounted to 1.8 fold and the “increase in absolute fluorescence upon addition of 1% BSA” value amounted to 250%. For the same compound, in the series on CCL39 cells, the IC50 is 36000 ± 6000 nM and the “effect on viability at 50 μM” value is listed as “significantly reduced”. Moreover, the EC50 on human CaSR [2] (setting [4]) was < 45 nM and ~40 nM and 42 nM. On human CaSR [2], the “fold improvement in potency toward CaSR compared to evocalcet” value is listed as 6 fold and the “fold increase in potency toward CaSR compared to the evocalcet-linker conjugate” value is on record as 3 fold. The Kd on human CaSR [3] was 71 ± 9.56 nM.
In the case of `C[C@@H](N[C@H]1CCN(c2ccc(CC(=O)O)cc2)C1)c1cccc2ccccc12` [evocalcet], the “effect of preincubating the BSA solution with evocalcet on EvoSiR4 fluorescence” value in series [1] (evocalcet 30–6000 nM, 350 nM EvoSiR4) was “No significant decrease; also recorded: no significant difference”. Further, the “concentration below which no effect on viability” value in the series with CCL39 cells is below 50 µM. The EC50 at human CaSR [2] (HCAR cells, response to addition of 0.5 mM CaCl2, no BSA, read-out: EC50, positive allosteric modulation of CaSR activity) turned out to be 243 ± 15 nM. For the same compound, on human CaSR [3] (10 μM evocalcet preincubation), the “effect of preincubation on CaSR-specific increase in relative fluorescence of EvoSiR probes” value was “completely abolished”.

As usually defined, the IC50 is the midpoint of a concentration-inhibition curve. Usually EC50 stands for the concentration that produces a half-maximal response. A word on the Kd: it is the constant that tells how readily two partners part at equilibrium.

The record behind these values is paper PMC11091967, “Silicon-Rhodamine Functionalized Evocalcet Probes Potently and Selectively Label Calcium Sensing Receptors In Vitro, In Vivo, and Ex Vivo” (ACS Pharmacology & Translational Science, 2024).
